Experimental data reported in patent US9139548B2, “Polycyclic derivatives, preparation process and pharmaceutical use thereof” (Jiangsu Hengrui Medicine Co., Ltd., priority 2012, dated 2015).

Columns and labels:
[1] = target: T1, GPR40 (Homo sapiens, UniProt O14842); test: Agonist activity on CHO-K1/GPR40 cell (Fluo-4 calcium fluorescence); assay type: cell-based; settings: CHO-K1 cell line expressing GPR40, calcium ion fluorescence
T1 construct: host or cells: CHO-K1 (Cell bank of the Chinese Academy of Sciences, GNHa 7), retrovirus infection
T1 sequence (O14842 whole entry): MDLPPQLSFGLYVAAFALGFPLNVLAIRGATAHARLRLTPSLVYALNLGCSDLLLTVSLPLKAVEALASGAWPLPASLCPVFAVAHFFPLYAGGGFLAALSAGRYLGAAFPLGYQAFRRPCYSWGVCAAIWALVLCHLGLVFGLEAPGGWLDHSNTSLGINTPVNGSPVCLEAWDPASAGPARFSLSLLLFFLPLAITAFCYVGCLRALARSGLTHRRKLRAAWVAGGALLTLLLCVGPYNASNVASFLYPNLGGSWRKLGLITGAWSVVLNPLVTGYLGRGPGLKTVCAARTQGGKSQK
Source text: Agonist activity of compounds of the present disclosure on CHO-K1/GPR40 cell.
The following method was used to determine the agonist activity of compounds of the present disclosure on GPR40. The experiment process is described as follows:
CHO-K1/GPR40 cell (CHO-K1 cell line expressing GPR40, which was constructed using retrovirus infection method, CHO-K1/GPR40 cell for short, wherein CHO-K1 cell was purchased from Cell bank of the Chinese Academy of Sciences, catalogue number GNHa 7; GPR40 cDNA was purchased from Guangzhou FulenGen Co., Ltd, catalogue number EX-UO270-MO2) was inoculated in a 96-well plate with an inoculation density of 25000 cells/well. The cell plate was incubated at 37° C. and 5% CO2 for 24 hours. The cell culture fluid was discarded during the experiment, the cells were washed with buffer solution (1×HBSS+20 mM HEPES pH 7.4) once, 100 μL of Fluo-4 calcium ion dye was quickly added into each well, incubated at 37° C. in the dark for 30 minutes, and then at room temperature for another 30 minutes. During the determination, the baseline value of each well was read at first, and then different concentrations of drug were added to the wells (50 μL/well), and the fluorescence values were then read. The fluorescence excitation wavelength was 494 nm and the emission wavelength was 516 nm. The increase of fluorescence intensity was proportional to calcium ion level in the cells. Cell response rate of each cell/(The maximum fluorescence value−The minimum fluorescence value)/The minimum fluorescence value. EC50 values of the compounds were calculated

[2] = Pharmacokinetics assay in rats after intragastric administration; assay type: in vivo; settings: for Vd/F / AUC / CL/F / half-life / MRT / Cmax: both sexes, SD, rat, plasma, po, 5 mg/kg; for Vd/F: read-out: Apparent Distribution Volume Vz/F; for AUC: read-out: Area under Curve AUC; for CL/F: read-out: Clearance CL/F (converted); for half-life: read-out: Half-Life t½ (converted); for MRT: read-out: Mean Residence Time MRT; for Cmax: read-out: Plasma Conc. Cmax
Protocol: The compounds of the present invention were administered intragastrically to determine the drug concentration in plasma at different time points. The pharmacokinetic behavior of the compounds of the present invention was studied and evaluated in rats.
Compounds of Example 1, Example 2, Example 13 and Example 30
16 healthy adult SD rats were divided into 4 groups with 4 in each group, half male and half female. Rats were purchased from SINO-BRITSH SIPPR/BK LAB. ANIMAL LTD., CO, License number: SCXK (Shanghai) 2008-0016
The appropriate amount of test compounds were weighed and added to 0.5% sodium carboxymethyl cellulose to prepare a 0.5 mg/mL suspension using microwave.
After an overnight fast, the rats were administered intragastrically a dose of 5.0 mg/kg, at an administration volume of 10 mL/kg. Blood samples were taken before administration and after administration at different time points over 24.0 hours, using heparin as an anticoagulant. The separated plasma samples were stored at −20° C. The rats were fed 2 hours after administration.
Blood samples (0.1 mL) were taken before administration and at 1.0, 2.0, 3.0, 4.0, 6.0, 8.0, 11.0, 24.0 and 48.0 hours after administration, which were stored in heparinized tubes and centrifuged for 5 minutes at 3,500 rpm to separate blood plasma. The plasma samples were stored at −20° C. The rats were fed 2 hours after administration.
The content of the different test compounds in rat plasma samples after the intragastric administration was determined by LC/MS/MS method. The linearity of the method is 1.00˜2000 ng/ml. The blood sample was analyzed after protein precipitation was accomplished by the addition of methanol.

[3] = test system: ICR mice fed on a high fat diet; test: Oral glucose tolerance test (OGTT) in glucose load mice fed on a high fat diet; assay type: in vivo; settings: blood glucose AUC, high fat diet ICR male mice, single oral dose 40 mg/kg
Protocol: ICR mice fed on a high fat diet were used as test animals. The effect of oral administration of a single dose of the compounds of the present disclosure on oral glucose tolerance test (OGTT) of glucose load mice was studied.
Compounds of Example 1, Example 2, Example 13, Example 16, Example 18, Example 19 and Example 26
Healthy ICR male mice were purchased from SINO-BRITSH SIPPR/BK LAB. ANIMAL LTD., CO, License number: SCXK (Shanghai) 2008-0016
The test compounds were added to aqueous 0.5% CMC-Na solution to prepare the corresponding concentration suspension using microwave.
After an overnight fast for 16 hours, male mice fed on a high fat diet were weighed, and the basic blood glucose was determined. The mice were randomly divided into a Blank group and the group of each test compound of the present disclosure according to the level of blood glucose.
The dosage of administration was 20 mg/kg or 40 mg/kg, and the Blank group was administered aqueous 0.5 CMC-Na solution.
20% Glucose solution was administered 15 minutes after intragastrical administration (each mouse was administered 0.4 mL)
The compounds were administered according to the aforesaid dosage to determine the blood glucose value (−15 minutes).
At 15 minutes after administration, 20% glucose solution was administrated at a dose of 2 g/kg and the blood glucose values at 0, 15, 30, 45, 60 and 120 minutes in each mouse were determined by Roche Accu-Chek blood glucose monitoring meter.
Using Excel statistical software: the average value was calculated with avg; SD value was calculated with STDEV; and P value of difference among groups was calculated with TTEST. • AUC calculation formula: AUC=(t15min+t0min)×0.25/2+(t30min+t15min)×0.25/2+(t45min+t30min)×0.25/2+(t60min+t45min)×0.25/2+(t120min+t60min)×1/2 • Wherein t0min, t15min, t30min, t45min, t60min, t120min were blood glucose values determined at different time points.

Row | EC50 [1] [µM] | Area under Curve AUC ([2]; SD rats, 5 mg/Kg) [ng·h/mL] | Clearance CL/F ([2]; SD rats, 5 mg/Kg) [mL/min/kg] | Half-Life t½ ([2]; SD rats, 5 mg/Kg) [h] | Mean Residence Time MRT ([2]; SD rats, 5 mg/Kg) [h] | Plasma Conc. Cmax ([2]; SD rats, 5 mg/Kg) [ng/mL] | Vd/F [2] [L/kg] | AUC [2] [ng·h/mL] | CL/F [2] [mL/min/kg] | half-life [2] [h] | MRT [2] [h] | Cmax [2] [ng/mL] | Compound | AUC decrease rate % ([3]; 40 mg/kg) [%] | AUC decrease rate % [3] [%]
1 | 0.016 | 39357 ± 10659 | 2.17 ± 0.5 | 10.0 ± 0.3 | 12.5 ± 1.5 | 3153 ± 482 |  |  |  |  |  |  | Cc1cc(O[C@@H]2COC[C@H]2O)cc(C)c1-c1cccc(COc2ccc3c(c2)OC[C@H]3CC(=O)O)c1 (mixture of isomers) [Example 13, 2-((S)-6-((4′-(((3R,4R)/(3S,4S)-4-Hydroxytetrahydrofuran-3-yl)oxy)-2′,6′-dimethylbiphenyl-3-yl)methoxy)-2,3-dihydrobenzofuran-3-yl)acetic acid] | 39.71 | 
2 | 0.031 |  |  |  |  |  | 3.39 ± 1.24 | 21600 ± 8620 | 4 | 10.1 ± 3.3 | 14.5 ± 4.7 | 1690 ± 698 | Cc1cc(O[C@H]2CCOC2)cc(C)c1-c1cccc(COc2ccc3c(c2)OC[C@H]3CC(=O)O)c1 [Example 1, 2-((S)-6-((2′,6′-Dimethyl-4′-(((S)-tetrahydrofuran-3-yl)oxy)biphenyl-3-yl)methoxy)-2,3-dihydrobenzofuran-3-yl)acetic acid] |  | 36.08
3 | 0.035 |  |  |  |  |  | 2.79 ± 0.79 | 32900 ± 11900 | 2.5 | 13.4 ± 3.8 | 18.9 ± 6 | 2010 ± 511 | Cc1cc(O[C@@H]2CCOC2)cc(C)c1-c1cccc(COc2ccc3c(c2)OC[C@H]3CC(=O)O)c1 [Example 2, 2-((S)-6-((2′,6′-Dimethyl-4′-(((R)-tetrahydrofuran-3-yl)oxy)biphenyl-3-yl)methoxy)-2,3-dihydrobenzofuran-3-yl)acetic acid] |  | 29.49
4 | 0.034 |  |  |  |  |  | 1.88 ± 0.66 | 38200 ± 15000 | 2.33 | 9.35 ± 0.55 | 13.3 ± 2 | 2730 ± 478 | Cc1cc(O[C@@H]2COC[C@H]2O)cc(C)c1-c1cccc(COc2ccc3c(c2)OC[C@H]3CC(=O)O)c1 [Example 30, 2-((S)-6-((4′-(((3R,4R)-4-hydroxytetrahydrofuran-3-yl)oxy)-2′,6′-dimethylbiphenyl-3-yl)methoxy)-2,3-dihydrobenzofuran-3-yl)acetic acid] | 29.59 | 
